The values that follow come from patent US11130780B2, “Inhibitors of growth factor activation enzymes” (Washington University, priority 2015, dated 2021).

Read-outs that look alike come from different tables or passages of the source. A value given as a limit tells only on which side of the number the result lay.

A word on the Ki: it is the equilibrium dissociation constant of an inhibitor or competing ligand from its target.

What all share (type): biochemical
One assay addresses Factor Xa (Homo sapiens, UniProt P00742). In words: Chromogenic kinetic enzyme assay of Factor Xa. Here is the method: (§1) Inhibitors (11-pt serial dilutions, 0-20 μM final concentration) were serially diluted in DMSO (2% DMSO final concentration) and then mixed with recombinant thrombin (0.15 nM final concentration) or Factor Xa (0.35 nM final concentration) in TNC buffer (25 mM Tris, 150 mM NaCl, 5 mM CaCl2, 0.01% TRITON X-100, pH 8) using clear 384 well plates. […] Changes in absorbance at 405 nm were measured over time in a Biotek Synergy 2 plate (Winnoski, Vt.). Using GraphPad Prism version 6.04 software program, (GraphPad Software, San Diego, Calif., www.graphpad.com), a four parameter curve fit was used to determine the inhibitor IC50s from a plot of the mean reaction velocity versus the inhibitor concentration. Ki values were calculated from the IC50 values using the Cheng and Prusoff equation (Ki=IC50/(1+[S]/Km).

In the next assay the target is thrombin (Homo sapiens, UniProt P00734). Kind of assay: Chromogenic kinetic enzyme assay of thrombin. The method, then: as §1
In assay [1] the target is T1, HGFA (Homo sapiens, UniProt Q04756).
T1 construct: His6 tag (N); seven amino acid spacer and seven amino acid TEV cleavage site (N); Honey Bee melittin signal peptide (N); made in house; host or cells: High 5 insect cells (baculovirus; virus raised in Sf9)
T1 sequence (Q04756 373-655): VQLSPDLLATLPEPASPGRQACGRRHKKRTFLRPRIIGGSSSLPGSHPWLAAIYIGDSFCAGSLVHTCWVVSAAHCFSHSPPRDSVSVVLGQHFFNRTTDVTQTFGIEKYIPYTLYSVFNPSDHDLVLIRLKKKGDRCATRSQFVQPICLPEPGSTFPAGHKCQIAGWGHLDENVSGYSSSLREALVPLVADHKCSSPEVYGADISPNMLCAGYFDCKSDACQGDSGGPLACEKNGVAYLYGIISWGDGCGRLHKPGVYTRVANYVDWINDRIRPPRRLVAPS
In words: Fluorescent kinetic enzyme inhibitor assay of HGFA. Conditions: for Ki: Fluorogenic Assay, read-out: HGFA Ki. In short, it runs like this:
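Recombinant His-tagged HGFA residues 373-655 from insect cells, with substrate at Km. Inhibitors in 11-point dilutions, 0-20 μM final, 2% DMSO, fluorescence (ex 380/em 460 nm) followed over time at room temperature. IC50 from four-parameter fit of mean velocity, average of three experiments.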

The next assay has as its target Trypsin. In words: Trypsin selectivity assay.
In another assay the target is T2, matriptase (Homo sapiens, UniProt Q9Y5Y6).
T2 construct: Charles Craik, UCSF (obtained from another laboratory)
T2 sequence (Q9Y5Y6 615-855 limits assumed): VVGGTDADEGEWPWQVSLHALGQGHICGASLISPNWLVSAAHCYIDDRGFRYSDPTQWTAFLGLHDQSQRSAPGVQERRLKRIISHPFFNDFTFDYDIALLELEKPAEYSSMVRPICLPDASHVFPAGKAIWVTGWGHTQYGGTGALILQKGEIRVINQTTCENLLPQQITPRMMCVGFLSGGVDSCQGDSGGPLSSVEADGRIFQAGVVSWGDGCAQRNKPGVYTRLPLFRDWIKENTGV
In words: Fluorescent kinetic enzyme inhibitor assay of matriptase. Conditions: Fluorogenic Assay. The procedure, abridged:
(§2)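 Fluorescence (ex 380/em 460 nm) followed kinetically at room temperature; IC50 from four-parameter fit of mean velocity versus concentration, averaged over three experiments.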

Assay [2] deals with T3, hepsin (Homo sapiens, UniProt P05981).
T3 construct: purchased R&D Systems 4776-SE-010
In words: Fluorescent kinetic enzyme inhibitor assay of hepsin. Conditions: Table 9.1; Fluorogenic Assay; read-out: Hepsin Ki. In short, it runs like this: as §2

Assay [3] concerns the target T4, HGFA (Homo sapiens, UniProt Q04756).
T4 sequence (Q04756 408-655 limits assumed): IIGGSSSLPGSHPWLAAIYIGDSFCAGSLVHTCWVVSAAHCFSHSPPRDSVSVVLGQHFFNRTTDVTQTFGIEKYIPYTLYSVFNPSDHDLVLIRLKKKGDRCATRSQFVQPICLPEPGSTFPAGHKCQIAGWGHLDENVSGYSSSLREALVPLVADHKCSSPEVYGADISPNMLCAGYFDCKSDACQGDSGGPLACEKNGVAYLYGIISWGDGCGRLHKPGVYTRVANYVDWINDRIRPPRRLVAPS
T4 sequence (Q04756 373-407 partner limits assumed): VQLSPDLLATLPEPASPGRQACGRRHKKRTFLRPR
Kind of assay: P1 substrate specificity using Ac-Ala-Arg-Leu-P1-ACC individual substrate library, HGFA. The conditions noted are these: substrate 5 μM; best amino acid set to 100%. Here is the method:
HFGA enzyme was diluted in the assay buffer (0.15 M NaCl, 0.025 M Tris, 0.005 M CaCl2, pH=8.0) to the final concentration of 10-20 nM (depending of sublibrary) and incubated at 25° C. for 30 minutes before added to a substrate.
(§3) The protocol for both enzymes activation and incubation are as the same as in HyCoSuL screening. The P1 individual substrate library was used at the final concentration of 5 μM. The total time of the assay was 30 min, however only linear portions of the progress curve (5-15 minutes) were used for velocity (RFU/s) calculations. Each screening for hepsin either HGFA was repeated 3-times and the average value for each measurement was used to create the substrate specificity matrix.

Assay [4] addresses T3, hepsin. Kind of assay: P4-P2 substrate specificity using HyCoSuL, hepsin. On the set-up: concentration or dose not given beside the values. The conditions noted are these: HyCoSuL substrate library; for P2 Position % Activity Hepsin: amino acid fixed at P2 position; for P3 Position % Activity Hepsin: amino acid fixed at P3 position; for P4 Position % Activity Hepsin: amino acid fixed at P4 position.

In assay [5] the target is T3, hepsin. Kind of assay: P1 substrate specificity using Ac-Ala-Arg-Leu-P1-ACC individual substrate library, hepsin. Conditions: substrate 5 μM; best amino acid set to 100%. The method, then:
Recombinant human hepsin (10 μg in 20 uL, 4776-SE-010, R&D Systems) was added to the 100 μL of activation buffer (0.1 M Tris, 0.15 M NaCl, 0.01 M CaCl2, 0.05% TRITON-X, pH=8.0) and incubated at 37° C. for 24 hours (hepsin concentration in activation buffer 2 μM). Once activated hepsin was diluted in assay buffer (0.05 M Tris, pH=9.0) to the final concentration of 4 nM and incubated at 37° C. for 15 minutes before added to a substrate.
as §3

Assay [6] concerns the target T4, HGFA. Kind of assay: P4-P2 substrate specificity using HyCoSuL, HGFA. On the set-up: P3 Position % Activity HGFA / P2 Position % Activity HGFA: concentration or dose not given beside the values; P4 Position % Activity HGFA: tested at 100 µM. Conditions: HyCoSuL substrate library; for P2 Position % Activity HGFA: amino acid fixed at P2 position; for P3 Position % Activity HGFA: amino acid fixed at P3 position; for P4 Position % Activity HGFA: amino acid fixed at P4 position. In short, it runs like this: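 HGFA at 10-20 nM, preincubated 30 min at 25 °C in Tris buffer pH 8.0 with NaCl and CaCl2, screened against P4, P3 and P2 HyCoSuL sublibraries at 100 μM. Velocities taken from linear 5-15 min fluorescence; means of ≥3 runs normalized to best amino acid (100%).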

The mark [7] stands for this setting: Table 6.2, headed Fluorogenic Assay.
Where [8] appears, read: Table 6.2, headed Fluorogenic Assay, read-out: Factor Xa Ki.
The mark [9] stands for this setting: Table 6.2, headed Fluorogenic Assay, read-out: Thrombin Ki.

Chain of Factor Xa (P00742 235-488 limits assumed): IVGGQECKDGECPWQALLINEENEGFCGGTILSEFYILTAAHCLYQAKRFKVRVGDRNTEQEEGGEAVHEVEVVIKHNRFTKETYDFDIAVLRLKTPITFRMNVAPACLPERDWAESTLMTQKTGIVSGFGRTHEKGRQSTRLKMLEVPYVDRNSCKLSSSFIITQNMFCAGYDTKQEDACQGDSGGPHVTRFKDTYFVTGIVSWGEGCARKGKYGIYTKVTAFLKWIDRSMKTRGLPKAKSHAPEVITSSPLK
Chain of Factor Xa (P00742 41-179 partner limits assumed): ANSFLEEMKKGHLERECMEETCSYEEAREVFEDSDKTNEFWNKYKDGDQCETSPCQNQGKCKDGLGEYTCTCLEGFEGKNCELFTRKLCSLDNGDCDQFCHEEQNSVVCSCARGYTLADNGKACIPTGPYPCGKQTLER
T3 sequence (P05981 163-417 limits assumed): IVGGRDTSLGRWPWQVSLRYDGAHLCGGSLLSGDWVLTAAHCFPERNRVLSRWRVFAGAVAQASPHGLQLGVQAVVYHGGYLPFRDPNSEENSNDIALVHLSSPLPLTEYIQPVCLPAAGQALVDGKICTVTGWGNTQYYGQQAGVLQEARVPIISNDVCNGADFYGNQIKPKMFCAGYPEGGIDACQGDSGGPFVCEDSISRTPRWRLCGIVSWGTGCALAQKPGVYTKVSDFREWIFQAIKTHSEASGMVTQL
T3 sequence (P05981 45-162 partner limits assumed): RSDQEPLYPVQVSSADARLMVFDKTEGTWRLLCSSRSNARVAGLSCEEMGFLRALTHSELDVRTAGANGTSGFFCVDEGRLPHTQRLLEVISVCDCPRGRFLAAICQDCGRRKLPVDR

As for `CC(=O)N[C@@H](CCCCN)C(=O)N[C@@H](CCC(N)=O)C(=O)N[C@@H](CC(C)C)C(=O)N[C@@H](CCCNC(=N)N)C(=O)c1nc2ccccc2s1` [Compound 7006, Ac-KQLR(SEQ ID NO: 1)-Kbt], the Ki is 129 nM on Factor Xa, above 20000 nM at thrombin, 30 nM at HGFA [1] (Table 6.1) and 0.24 nM at Trypsin (setting [7]). For the same compound, the “fold increase in HGFA potency” value on HGFA [1] (versus parent compound) stood at 2 fold.

In the case of `COC(=O)c1cccc(CNC(=O)c2ccc3nc(C(=O)[C@H](CCCNC(=N)N)NC(=O)[C@H](CC(C)C)NC(=O)[C@H](CCCNC(=N)N)NC(=O)[C@H](CCCCN)NC(C)=O)sc3c2)c1` [Compound 7159, Ac-KRLR(SEQ ID NO: 8)-kbt-Benzyl-3-COOMe], the Ki at Factor Xa (setting [8]) was determined as 14 nM; on thrombin (setting [9]), 85.4 nM; at HGFA [1] (Table 6.1), 7.76 nM; at Trypsin (setting [7]), 0.04 nM.

Consider `CC(=O)N[C@@H](CO)C(=O)N[C@@H](CCCCN)C(=O)N[C@@H](CC(C)C)C(=O)N[C@@H](CCCNC(=N)N)C(=O)c1nc2ccccc2s1` [Compound 7053, Ac-SKLR(SEQ ID NO: 10)-Kbt], for which the Ki at Factor Xa is 1900 nM; on thrombin it was above 20000 nM; at HGFA [1] (Table 6.1), 33 nM; on Trypsin (setting [7]), 0.16 nM.

`COC(=O)c1ccc(CNC(=O)c2ccc3nc(C(=O)[C@H](CCCNC(=N)N)NC(=O)[C@H](CC(C)C)NC(=O)[C@H](CCCNC(=N)N)NC(=O)[C@H](CCCCN)NC(C)=O)sc3c2)cc1` [Compound 7158, Ac-KRLR(SEQ ID NO: 8)-kbt-Benzyl-4-COOMe]: the Ki at Factor Xa (setting [8]) was 9 nM; on thrombin (setting [9]), 20.9 nM; at HGFA [1] (Table 6.1) it was 5.85 nM; at Trypsin (setting [7]) it was 0.05 nM.

With `N=C(N)NCCC[C@H](NC(=O)[C@H](Cc1ccccc1)NC(=O)OCC1c2ccccc2-c2ccccc21)C(=O)c1nc2ccccc2s1` [Compound 7187-14, Fmoc-FR-kbt], the Ki on Factor Xa (setting [8]) is 28.4 nM; at thrombin (setting [9]) it was above 2000 nM; at HGFA [1] (Table 6.1), 964 nM; at Trypsin (setting [7]) it was 14.3 nM.

With `CC(=O)N[C@@H](Cc1ccccc1)C(=O)N[C@@H](CC(C)C)C(=O)N[C@@H](Cc1ccccc1)C(=O)N[C@@H](CCCNC(=N)N)C(=O)c1nc2ccccc2s1` [Compound 7063, Ac-FLFR(SEQ ID NO: 19)-Kbt], the Ki at Factor Xa (setting [8]) is 13.1 nM; on thrombin (setting [9]), above 20000 nM; at HGFA [1] (Table 6.1) it was 114 nM; at Trypsin (setting [7]) it was 0.27 nM; at matriptase (Table 6.1), 3.6 nM.

`N=C(N)c1cccc(C[C@H](NS(=O)(=O)c2ccc3ccccc3c2)C(=O)N2CCN(C(=O)NCc3ccc(Br)cc3)CC2)c1` [Compound 25a, (S)—N-(4-Bromobenzyl)-4-(3-(3-carbamimidoylphenyl)-2-(naphthalene-2-sulfonamido)propanoyl)piperazine-1-carboxamide]: the Ki on Factor Xa (Table 9.4, read-out: Factor Xa Ki) was 4560 nM; on thrombin (Table 9.4, read-out: Thrombin Ki) it was 3110 nM; on HGFA [1] (Table 9.1), 16200 nM; on hepsin [2], 48 nM; at Trypsin (Table 9.4), 2.2 nM; on matriptase (Table 9.1), 4200 nM.

For L-Orn, the “% activity, P1 position, HGFA” value at HGFA [3] is listed as 0.00%. In addition, on hepsin [4], the “P2 Position % Activity Hepsin” value stood at 78.48%, the “P3 Position % Activity Hepsin” value was found to be 79.70% and the “P4 Position % Activity Hepsin” value came to 84.52%. Besides, the “% activity, P1 position, Hepsin” value on hepsin [5] came to 0.00%. At HGFA [6], the “P2 Position % Activity HGFA” value was determined as 0.00%, the “P3 Position % Activity HGFA” value worked out at 54.04% and the “P4 Position % Activity HGFA” value is given as 20.23%.

Regarding D-Ser, the “% activity, P1 position, HGFA” value at HGFA [3] was 0.00%. Besides, on hepsin [4], the “P2 Position % Activity Hepsin” value came to 11.55%, the “P3 Position % Activity Hepsin” value is recorded as 54.84% and the “P4 Position % Activity Hepsin” value came to 21.84%. Besides, the “% activity, P1 position, Hepsin” value on hepsin [5] is recorded as 0.02%. For the same compound, on HGFA [6], the “P2 Position % Activity HGFA” value is reported as 0.00%, the “P3 Position % Activity HGFA” value came out at 10.86% and the “P4 Position % Activity HGFA” value turned out to be 7.94%.

For the compound D-Asn, the “% activity, P1 position, HGFA” value at HGFA [3] amounted to 0.00%. On hepsin [4], the “P2 Position % Activity Hepsin” value turned out to be 0.00%, the “P3 Position % Activity Hepsin” value came out at 38.75% and the “P4 Position % Activity Hepsin” value came to 18.48%. Moreover, at hepsin [5], the “% activity, P1 position, Hepsin” value is listed as 0.00%. In addition, on HGFA [6], the “P2 Position % Activity HGFA” value is 0.00%, the “P3 Position % Activity HGFA” value was determined as 15.16% and the “P4 Position % Activity HGFA” value came to 7.38%.

Consider `CC(C)C[C@H](NC(=O)[C@H](CCCNC(=N)N)NC(=O)[C@@H](N)Cc1c[nH]c2ccccc12)C(=O)N[C@@H](CCCNC(=N)N)C(=O)c1nc2ccccc2s1` [Compound 7117, H-WRLR(SEQ ID NO: 9)-Kbt], for which the Ki is 2.4 nM at Factor Xa (setting [8]), 4890 nM at thrombin (setting [9]), 8.75 nM at HGFA [1] (Table 6.1) and 0.96 nM on Trypsin (setting [7]).

For L-hArg, the “% activity, P1 position, HGFA” value at HGFA [3] turned out to be 0.00%. Further, on hepsin [4], the “P2 Position % Activity Hepsin” value was 57.96%, the “P3 Position % Activity Hepsin” value is recorded as 47.00% and the “P4 Position % Activity Hepsin” value is recorded as 56.24%. Further, at hepsin [5], the “% activity, P1 position, Hepsin” value is 0.24%. Further, on HGFA [6], the “P2 Position % Activity HGFA” value amounted to 5.83%, the “P3 Position % Activity HGFA” value worked out at 100.00% and the “P4 Position % Activity HGFA” value turned out to be 22.07%.
